Measurements published in PubChem BioAssay (NCI).
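Step 1: Grow cells in 96-well plates. Step 2: Expose to compound for 48 hours at 5 concentrations. Step 3: Interpolate endpoints linearly; if unreached, use highest concentration. The concentration for 50% growth inhibition is given as GI50. At the TGI there is no net growth.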

How the values were obtained:
Experiment in all cases: DTP human tumour cell line panel, 48 h
[1] = tested on: HOP-92 NSCLC
[2] = tested on: HT29 colon
[3] = tested on: NCI-H226 lung
[4] = tested on: HCC-2998 colon
[5] = tested on: LOX IMVI melanoma
[6] = tested on: K-562 leukemia
[7] = tested on: OVCAR-3 ovarian
[8] = tested on: SF-295 CNS
[9] = tested on: SF-539 CNS
[10] = tested on: MCF7 breast

SMILES | TGI [1] [µM] | TGI [2] [µM] | TGI [3] [µM] | TGI [4] [µM] | TGI [5] [µM] | TGI [6] [µM] | TGI [7] [µM] | TGI [8] [µM] | TGI [9] [µM] | TGI [10] [µM] | GI50 [10] [µM] | GI50 [1] [µM] | GI50 [2] [µM] | GI50 [8] [µM]
C=C1C(=O)OC2(C)C3CCC(C3)C12 (stereo not drawn) | 87.4 | > 100 | > 100 | > 100 | > 100 | > 100 | > 100 | > 100 | > 100 |  |  |  |  | 
c1ccc(C2=Nc3nc4ccccc4n3C(c3ccccc3)C2)cc1 (stereo not drawn) | > 100 | > 100 | > 100 |  | > 100 | > 100 | > 100 | > 100 | > 100 | > 100 |  |  |  | 
CN1C(=S)C(c2ccccc2)Sc2ccccc21 (stereo not drawn) |  |  | > 100 |  | > 100 | > 100 | > 100 | 89.4 |  | > 100 |  |  |  | 
O=C(O)CCCCCOc1cccnc1/C=N/NC1=NCCN1 | > 100 | > 100 | > 100 | > 100 | > 100 | > 100 | > 100 | > 100 | > 100 |  |  |  |  | 
CCCCCC(=O)c1ccc2[nH]c3c(C)cc([N+](=O)[O-])c(C)c3c2c1 |  | > 100 | > 100 | > 100 | > 100 | 92.5 | > 100 | > 100 | > 100 |  |  |  |  | 
COc1ccccc1-c1cc(=O)c2ccccc2[nH]1 |  |  | > 100 | > 100 | > 100 | > 100 | > 100 | > 100 | > 100 |  |  |  |  | 
CC(C)CCC[C@@H](C)[C@H]1CCC2C3CC=C4C[C@@H](Oc5c6ccccc6nc6ccccc56)CCC4C3CCC21 (stereo partly drawn) | > 50 | > 50 | > 50 |  | > 50 | > 50 | > 50 | > 50 | > 50 |  |  |  |  | 
Cc1ccc(S(=O)(=O)/N=C(\NN)Nc2ccc(Cl)cc2)cc1 | > 100 | > 100 | > 100 |  | > 100 | > 100 | > 100 | > 100 | > 100 | > 100 |  |  |  | 
N=c1nnc(=O)c2c(s1)-n1ncc(C(=O)O)c1NN2 | > 100 | > 100 |  |  |  | > 100 | > 100 | > 100 | > 100 |  |  |  |  | 
COC(=O)c1cc(NC(=O)c2cc(NC(=O)c3cc([N+](=O)[O-])cn3C)cn2C)cn1C | 95.7 | > 100 | > 100 |  | > 100 | > 100 | > 100 | > 100 | > 100 | > 100 |  |  |  | 
COc1cc2c(c(OC)c1OC)-c1ccc(SC)c(=O)cc1[C@@H](OC(C)=O)CC2 | > 100 |  |  |  | > 100 | > 100 |  |  |  | > 100 |  |  |  | 
Clc1ccc(Cc2nc3ccc(CCN4CCN(c5ccccc5)CC4)cc3[nH]2)cc1 | 73.8 | 22.5 | 51.3 |  | 27 | 30.6 | 27 | 26.5 | 33.5 | 37.6 |  |  |  | 
CCOc1ccc(/C=C(\Cl)c2ccc(OC)c(OC)c2)cc1 | > 100 | 40.9 | 74.8 | > 100 |  | > 100 |  | > 100 | > 100 |  |  |  |  | 
CN(C(=O)Cc1ccc(Cl)c(Cl)c1)[C@H]1CCCC[C@@H]1[N+]1(C)CCCC1 |  | > 100 | > 100 |  | > 100 | > 100 | > 100 | > 100 | > 100 | > 100 |  |  |  | 
O=C1O/C(=C(\Br)c2cccc3ccccc23)c2ccccc21 | > 56.9 | 56.3 | > 55.7 | > 100 | > 100 | > 68.4 | > 57.2 | > 53.6 | > 100 |  |  |  |  | 
CC(=O)[C@@H]1CCC=C2CC[C@]3(C)[C@@H](CC[C@@H]4[C@@]5(C)CCCNC(C)(C)[C@@H]5CC[C@]43C)[C@H]21 | 2.77 | 2.58 |  |  |  |  |  | 3.26 |  | 2.92 | 1.37 | 1.37 | 1.2 | 1.81
Cc1sc2nc(-c3cc([N+](=O)[O-])c(Cl)cc3Cl)c(/C=N/N=C(N)N)n2c1C | 31.5 | 9 | 75.2 | 5.39 |  | 9.95 | 30.3 | 36.4 | 88 |  |  |  |  | 
CCCCCCCC(=O)OC(CBr)COC(=O)C(C)(C)C (stereo not drawn) | > 100 | > 100 | > 100 | > 100 | > 100 | > 100 | > 100 | > 100 |  |  |  |  |  | 
CCCCCCCCCCCCCCCCCCNc1ccn(C2OC(COP(=O)(O)OCC3CCC(n4cnc5c(=O)[nH]cnc54)O3)C(O)C2O)c(=O)n1 (stereo not drawn) | > 100 | > 100 | > 100 |  | > 100 |  | > 100 | > 100 | > 100 | > 100 |  |  |  | 
O=C(Nc1nc2ccccc2n1Cc1ccccc1)NC12CC3CC(CC(C3)C1)C2 | 83.6 | > 100 | > 100 | > 100 | > 100 | > 100 | > 100 | 37 | > 100 |  |  |  |  | 
